This note sets out measurements from ChEMBL document CHEMBL1125953, “Probing the inhibition of leukotriene A4 hydrolase based on its aminopeptidase activity” (Bioorg Med Chem Lett, 1991).

In series [1] the target is T1, Leukotriene A-4 hydrolase (Homo sapiens, UniProt P09960).
T1 sequence (P09960 whole entry): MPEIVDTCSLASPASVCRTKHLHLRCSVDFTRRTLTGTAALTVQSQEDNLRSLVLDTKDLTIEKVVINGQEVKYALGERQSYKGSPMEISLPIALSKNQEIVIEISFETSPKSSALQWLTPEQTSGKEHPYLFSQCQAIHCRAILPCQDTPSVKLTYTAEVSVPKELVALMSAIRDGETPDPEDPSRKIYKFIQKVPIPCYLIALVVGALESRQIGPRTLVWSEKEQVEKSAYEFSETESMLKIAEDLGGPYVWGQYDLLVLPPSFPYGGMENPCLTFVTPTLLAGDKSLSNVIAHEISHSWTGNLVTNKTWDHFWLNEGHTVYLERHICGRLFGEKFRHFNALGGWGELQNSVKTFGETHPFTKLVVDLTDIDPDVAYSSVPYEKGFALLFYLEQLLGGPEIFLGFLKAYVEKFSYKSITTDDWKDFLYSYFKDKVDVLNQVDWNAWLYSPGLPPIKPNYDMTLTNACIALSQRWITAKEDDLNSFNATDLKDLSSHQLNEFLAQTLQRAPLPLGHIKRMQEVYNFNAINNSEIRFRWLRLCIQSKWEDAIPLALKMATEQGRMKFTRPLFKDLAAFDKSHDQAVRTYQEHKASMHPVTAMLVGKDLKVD
Put plainly: Compound was tested for inhibitory activity against Leukotriene A4 hydrolase from human leukocytes; NI means no inhibition at 1 mM.

In series [2] the target is T1, Leukotriene A-4 hydrolase. Put plainly: Inhibitory activity against Leukotriene A4 hydrolase from human leukocytes.
The nature of series [3]: Ratio of catalytic constant to that of Michaelis-Menten constant for LTA4 hydrolase-catalyzed hydrolysis was determined.
Substrate in series [4]: CC(C)C[C@H](N)C(=O)Nc1ccc([N+](=O)[O-])cc1
The experiment in a line: (§1) Maximum velocity of amino acid amides was tested as substrates for Leukotriene A4 hydrolase catalyzed hydrolysis.

Substrate in series [5]: NC(N)=NCCC[C@@H](N)C(=O)Nc1ccc([N+](=O)[O-])cc1
The series is described as §1.

Substrate in series [6]: CCCCC/C=C\C/C=C\C=C\C=C\[C@@H]1O[C@H]1CCCC(=O)O
Described as §1.

Substrate in series [7]: O=C(Nc1ccc([N+](=O)[O-])cc1)[C@@H]1CCCN1
The description is as §1.

Substrate in series [8]: C[C@@H](N)C(=O)Nc1ccc([N+](=O)[O-])cc1
Put plainly: (§2) Michaelis-Menten constant of compound for Leukotriene A4 hydrolase catalyzed hydrolysis was determined.

Substrate in series [9]: CC(C)C[C@H](N)C(=O)Nc1ccc([N+](=O)[O-])cc1
The series is described as §2.

Substrate in series [10]: NCCCC[C@@H](N)C(=O)Nc1ccc([N+](=O)[O-])cc1
Described as §2.

Substrate in series [11]: NC(N)=NCCC[C@@H](N)C(=O)Nc1ccc([N+](=O)[O-])cc1
Described as §2.

Substrate in series [12]: CCCCC/C=C\C/C=C\C=C\C=C\[C@@H]1O[C@H]1CCCC(=O)O
Described as §2.

Substrate in series [13]: O=C(Nc1ccc([N+](=O)[O-])cc1)[C@@H]1CCCN1
The series is described as §2.

Substrate in series [14]: C[C@H](N)C(=O)Nc1ccc([N+](=O)[O-])cc1
The experiment in a line: Maximum velocity of amino acid amides was tested as substrates for Leukotriene A4 hydrolase.

Substrate in series [15]: C[C@@H](N)C(=O)Nc1ccc([N+](=O)[O-])cc1
The experiment in a line: (§3) Maximum velocity of amino acid amides was tested as substrates for LTA4 hydrolase-catalyzed hydrolysis.

Substrate in series [16]: NCCCC[C@@H](N)C(=O)Nc1ccc([N+](=O)[O-])cc1
Described as §3.

Where only a bound is given, the exact number is not on record here.

For orientation: IC50 means the concentration that inhibits the measured activity by half. Lower therefore signals greater potency in that assay. The Km is the concentration of substrate that gives half-maximal velocity.

As for `COC(=O)[C@@H](O)[C@H](N)Cc1ccccc1`, the IC50 result in [1] was “No inhibition”.

With `N[C@H](Cc1ccccc1)[C@H](O)C(=O)O`, in series [1], the IC50 result is reported as “No inhibition”.

As to `COC(=O)C(S)[C@H](N)Cc1ccccc1` (stereo partly specified), in series [2], the IC50 is > 250 µM.

For the molecule `N[C@H](Cc1ccccc1)[C@H](O)C(=O)NCCC(=O)O`, the IC50 in [2] is ~100 µM.

`C[C@H](CS)C(=O)N1CCC[C@H]1C(=O)O` [CAPTOPRIL]: half-maximal inhibition in series [2] (IC50) was put at 0.07 µM.

For the molecule `NC(Cc1ccccc1)P(=O)(O)NCC(=O)O` (stereo unspecified), in series [2], the IC50 was ~200 µM.

Turning to `COC(=O)C(S)[C@@H](N)Cc1ccccc1` (stereo partly specified), the IC50 in series [2] is ~250 µM.

Consider `N[C@@H](Cc1ccccc1)[C@H](O)C(=O)O`, for which, in series [2], the IC50 is > 1000 µM.

Turning to `COC(=O)[C@H](O)[C@H](N)Cc1ccccc1`, the IC50 entry in series [1] is “No inhibition”.

Take `O=C(Nc1ccc([N+](=O)[O-])cc1)[C@@H]1CCCN1`: in [3], the k cat/Km worked out at 1500 M⁻¹ s⁻¹.

Take `CC(C)CC(N)C(=O)Nc1ccc([N+](=O)[O-])cc1` (single isomer, unassigned): the k cat/Km in series [3] was 500 M⁻¹ s⁻¹.

`C[C@@H](N)C(=O)Nc1ccc([N+](=O)[O-])cc1`: the k cat/Km in [3] was found to be 1200 M⁻¹ s⁻¹.

`CCOC(=O)CC(F)(F)C(=O)/C=C/c1ccccc1`: in series [2], the IC50 is > 5000 µM.

With `NCCCC[C@@H](N)C(=O)Nc1ccc([N+](=O)[O-])cc1`, in [3], the k cat/Km was 350 M⁻¹ s⁻¹.

As to `CCCCC/C=C\C\C=C/C=C/C=C/[C@@H]1O[C@H]1CCCC(=O)O`, the k cat/Km in series [3] is 90000 M⁻¹ s⁻¹.

Turning to `COC(=O)[C@H](O)[C@@H](N)Cc1ccccc1`, in [2], the IC50 was > 500 µM.

For the molecule `N[C@@H](Cc1ccccc1)[C@H](O)C(=O)NCCC(=O)O`, the IC50 in series [2] was ~80 µM.

Regarding `NC(N)=NCCC[C@@H](N)C(=O)Nc1ccc([N+](=O)[O-])cc1`, the k cat/Km in [3] was found to be 750 M⁻¹ s⁻¹.

B1: Leukotriene A-4 hydrolase (Homo sapiens), P09960 (protein)
chain: MPEIVDTCSLASPASVCRTKHLHLRCSVDFTRRTLTGTAALTVQSQEDNLRSLVLDTKDLTIEKVVINGQEVKYALGERQSYKGSPMEISLPIALSKNQEIVIEISFETSPKSSALQWLTPEQTSGKEHPYLFSQCQAIHCRAILPCQDTPSVKLTYTAEVSVPKELVALMSAIRDGETPDPEDPSRKIYKFIQKVPIPCYLIALVVGALESRQIGPRTLVWSEKEQVEKSAYEFSETESMLKIAEDLGGPYVWGQYDLLVLPPSFPYGGMENPCLTFVTPTLLAGDKSLSNVIAHEISHSWTGNLVTNKTWDHFWLNEGHTVYLERHICGRLFGEKFRHFNALGGWGELQNSVKTFGETHPFTKLVVDLTDIDPDVAYSSVPYEKGFALLFYLEQLLGGPEIFLGFLKAYVEKFSYKSITTDDWKDFLYSYFKDKVDVLNQVDWNAWLYSPGLPPIKPNYDMTLTNACIALSQRWITAKEDDLNSFNATDLKDLSSHQLNEFLAQTLQRAPLPLGHIKRMQEVYNFNAINNSEIRFRWLRLCIQSKWEDAIPLALKMATEQGRMKFTRPLFKDLAAFDKSHDQAVRTYQEHKASMHPVTAMLVGKDLKVD
As for B1, the Vmax (nM min-1 mg-1) was found to be 130 in [4]; 140 in [5]; 572 in series [6]; 130 in [7]; 0 in series [14]; 530 in [15]. The Vmax (nM min-1 mg-1) in [16] is 30. Also, the Km in series [8] is 500 µM; in series [9], 300 µM; in [10] it was 100 µM; in series [11], 200 µM; in [12], 7.6 µM; in series [13], 100 µM.
